This note sets out measurements from patent US20240190872A1, “FABI INHIBITORS FOR GRAM-NEGATIVE PATHOGENS” (THE BOARD OF TRUSTEES OF THE UNIVERSITY OF ILLINOIS, priority 2021, published 2024).

≈ marks a conversion by molar mass, not a printed value.

The subject of series [1] is K. pneumoniae BAA 2472. Nature of the series: microbe, parasite or virus in culture. It is filed as cell-based. Particulars: clinical isolate. On the procedure:
(§1) The compounds synthesized, shown in Table 1, were evaluated against Gram-positive and Gram-negative reference strains (S. aureus 29213 and E. coli MG1655, respectively), as well as an efflux deficient E. coli strain (ΔtolC, JW5503).
(§2) Bacterial strains. S. aureus ATCC 29213, E. coli MG1655, E. coli BAA-2340, E. coli BAA-2469, E. coli BAA-2471, E. cloacae BAA-2341, E. cloacae BAA-2468, K. pneumoniae BAA-1705, K. pneumoniae BAA-2342, K. pneumoniae BAA-2470, K. pneumoniae BAA-2472, and K. pneumoniae BAA-2473 were obtained from ATCC. E. coli JW5503 and E. coli JW3596 were obtained from the KEIO Collection. E. cloacae ATCC 29893 was provided by W. van der Donk (UIUC). E. coli AR-0346, E. coli AR-0349, E. coli AR-0493, E. coli AR-0495, and K. pneumoniae AR-0347 were obtained from the CDC and FDA AR Isolate Bank. E. coli F20987, E. coli M66623, E. cloacae S28901.1, K. pneumoniae M14723, K. pneumoniae M67198, K. pneumoniae M67297, K. pneumoniae S20595, K. pneumoniae S47889, A. baumannii W41979, A. baumannii F19521, A. baumannii M13100, and A. baumannii WO22 were obtained from the University of Illinois Chicago Medical School. A. baumannii KB304, A. baumannii KB343, and A. baumannii KB357 were provided by J. Quale.
(§3) Antimicrobial susceptibility tests. Susceptibility testing was performed in biological triplicate, using the micro-dilution broth method as outlined by the Clinical and Laboratory Standards Institute. Bacteria were cultured with cation-adjusted Muller-Hinton broth (Sigma-Aldrich, Cat# 90922) in round-bottom 96-well plates (Corning, Cat# 3788). Human serum (pooled gender, 0.2 μm filtered) was purchased from BioIVT (Hicksville, NY).

Series [2] concerns the target A. baumannii FabI (Acinetobacter baumannii, UniProt D0CAD5). As to the kind of experiment: biochemical. Particulars: purified FabI, apparent inhibition constant; read-out: A. baumannii FabI Ki^app. On the procedure: Mode of Action. To probe the effects of varying ring systems and amine placement on FabI target engagement, the apparent inhibition constants (Ki^app) for select compounds were determined using purified FabI. The goal of these studies was two-fold, to comparatively assess fabimycin, Debio-1452-NH3, and Debio-1452, and to also assess differential activity against the E. coli and A. baumannii versions of FabI. FabI from E. coli and A. baumannii were recombinantly expressed and purified, and the ability for each compound to inhibit the activity of these enzymes was evaluated using a standard FabI enzyme assay.
In vitro FabI inhibition assay. NADH (Sigma-Aldrich, Cat# N8129) and crotonoyl-CoA (Sigma-Aldrich, Cat# 28007) were both diluted into activity buffer [100 mM potassium glutamate (pH 7.8)], and working solution was dispensed into two columns of round-bottom 96-well plate (330 μL per well). Inhibitors, dissolved in DMSO at 200× final concentration, were added to each well via multichannel pipette (2.48 μL per well). After thorough mixing, this mixture was transferred to UV-transparent plate (UV-STAR half-area 96-well plate, Greiner Bio-One, Cat#675801, 100 μL per well, three technical replicates per inhibitor concentration). Plate was placed in plate-reader (SpectraMax 190, Molecular Devices) under temperature control (25° C.), and temperature was allowed to equilibrate. Fresh aliquot of enzyme from −80° C. was thawed on ice and diluted in activity buffer. Enzyme working solution was added to plate (50 μL per well, 20 nM enzyme final). After shaking for 5 s, reaction progress was monitored by absorbance at 340 nm every 15 s for 90 min. Linear portion of reaction progress curve was fit using plate-reader software (SoftMax Pro 7.0). Percent activity was calculated relative to DMSO-only and no-enzyme controls in each plate. Percent activity curves were fit to Morrison's quadratic using Graphpad Prism 6.0 to obtain apparent Ki.

The subject of series [3] is E. coli MG1655. Nature of the series: Antimicrobial susceptibility test (MIC). It is filed as cell-based. Particulars: E. coli MG1655.
Source text: as §2, §3

Series [4] relates to S. aureus ATCC 29213. As to the kind of experiment: Antimicrobial susceptibility test (MIC), micro-dilution broth. It counts as cell-based. Particulars: S. aureus ATCC 29213.
Source text: as §2, §3
Background: Dilution methods test growth across graded concentrations, often in twofold steps.

The test system of series [5] is E. coli ΔtolC (JW5503). It is filed as cell-based. Particulars: efflux deficient E. coli ΔtolC. On the procedure:
as §1, §2, §3

The subject of series [6] is A. baumannii AR 0313. Nature of the series: microbe, parasite or virus in culture. It counts as cell-based. The settings on record: clinical isolate. On the procedure: as §3
Series [7] concerns E. coli AR 0048. Nature of the series: microbe, parasite or virus in culture. It is filed as cell-based. Particulars: clinical isolate. On the procedure:
as §3

Series [8] has as its system K. pneumoniae AR 0066. As to the kind of experiment: microbe, parasite or virus in culture. It is filed as cell-based. The settings on record: clinical isolate. On the procedure: as §3
For series [9], the system named is K. pneumoniae AR 0560. Nature of the series: microbe, parasite or virus in culture. It counts as cell-based. Particulars: clinical isolate. On the procedure:
as §3

For series [10], the system named is A. baumannii AR 0299. As to the kind of experiment: microbe, parasite or virus in culture. It is filed as cell-based. Particulars: clinical isolate. The protocol:
as §3

The subject of series [11] is A. baumannii AR 0273. As to the kind of experiment: microbe, parasite or virus in culture. It counts as cell-based. The settings on record: clinical isolate. The protocol: as §3
For series [12], the system named is E. coli AR 0085. Nature of the series: microbe, parasite or virus in culture. It is filed as cell-based. Particulars: clinical isolate. The protocol:
as §3

Series [13] has as its system K. pneumoniae AR 0113. Nature of the series: microbe, parasite or virus in culture. It is filed as cell-based. The settings on record: clinical isolate. On the procedure:
as §3

In series [14] the test system is A. baumannii AR 0033. Nature of the series: microbe, parasite or virus in culture. It counts as cell-based. Particulars: clinical isolate. The protocol: as §3
The test system of series [15] is Hep G2. Nature of the series: Toxicity screen against mammalian cell lines (72 h). It counts as cell-based.
The subject of series [16] is IMR90. As to the kind of experiment: Toxicity screen against mammalian cell lines (72 h), Alamar Blue. It counts as cell-based. The protocol: Cell culture. IMR90 cells were obtained from ATCC. IMR90 cells were grown in EMEM with 10% fetal bovine serum (Gemini Benchmark, Cat# 100-106), 100 U/mL penicillin, and 100 μg/mL streptomycin. All cells were cultured at 37° C. in a 5% CO2 environment. Media was prepared by the Univeristy of Illinois School of Chemical Sciences Cell Media Facility. Sex and age of cell lines: IMR90 ([…]).
Cell viability. Cells seeded (IMR90: 5,000 cells/well) a 96-well plate (Greiner Bio-One, Cat# 655180) and were allowed to attach overnight. […] Raptinal (100 μM) was used as a dead control. After 24 h post-treatment, media was exchanged with compound-free media. […] Stock Alamar Blue solution [10 μL, 440 μM resazurin (Sigma-Aldrich, Cat# R7017) in sterile 1×PBS] was added to each well, and plate was incubated […]. Conversion of Alamar Blue was measured with plate reader (SpectraMax M3, Molecular Devices) by fluorescence (ex 555 nm, em 585 nm, cutoff 570 nm, autogain). Percent death was determined by normalizing to DMSO-treated cells and raptinal-treated cells.

The nature of series [17]: in vivo. The settings on record: female, C57BL/6, mouse, in vivo, ip. The protocol: Mouse MTD of Debio-1452-NH3. The protocol was approved by the IACUC at the University of Illinois at Urbana-Champaign (Protocol Number:16144). In these studies, 10- to 12-week-old female C57BL/6 mice purchased from Charles River were used. The maximum tolerate dose (MTD) of single compound was determined first. Debio-1452 amine analogues were formulated in 20% sulfobutyl ether β-cyclodextrin in sterile water. Debio-1452-NH3 (1), and compounds 2 and 3 were given by IP injection and mice were monitored for signs of toxicity for 2 weeks (single dose). For multiple dose, the compound was given by daily IP for 5 consecutive days and mice were monitored for signs of toxicity for 1 month. MTD was the highest dosage with acceptable toxicity (e.g. <20% weight loss). Single dose MTDs were initially determined. […] The MTD of Debio-1452-NH3 (1) was used to inform the dosing schedule used in subsequent efficacy studies.

A. baumannii FabI, sequence (D0CAD5 1-288): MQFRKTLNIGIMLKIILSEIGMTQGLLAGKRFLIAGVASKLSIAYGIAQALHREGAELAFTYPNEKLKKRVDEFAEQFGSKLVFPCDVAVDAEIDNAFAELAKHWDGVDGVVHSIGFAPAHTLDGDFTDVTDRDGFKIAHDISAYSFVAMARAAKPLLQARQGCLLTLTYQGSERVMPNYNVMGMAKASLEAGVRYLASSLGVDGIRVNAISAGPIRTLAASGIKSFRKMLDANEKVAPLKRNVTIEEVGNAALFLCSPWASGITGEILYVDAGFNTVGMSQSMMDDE

“(R,E)-3-(7-amino-8-oxo-6,7,8,9-tetrahydro-5H-pyrido[2,3]azepin-3-yl)-N-methyl-N-((3-methylbenzofuran-2-yl)methyl)acrylamide [(R)-11]”: in series [1], the “MIC K. pneumoniae BAA 2472” value was more than 128 µg/mL. Further, the Ki in [2] came out at 89 ± 11 nM. Besides, the “MIC E. coli MG1655” value in series [3] amounted to 64 µg/mL. Also, the “MIC S. aureus 29213” value in [4] turned out to be 0.125 µg/mL. In series [5], the “MIC E. coli ΔtolC” value worked out at 0.5 µg/mL. Also, the “MIC A. baumannii AR 0313” value in series [6] is more than 128 µg/mL. For the same compound, the “MIC E. coli AR 0048” value in series [7] amounted to 128 µg/mL. Moreover, the “MIC K. pneumoniae AR 0066” value in series [8] was more than 128 µg/mL. Further, the “MIC K. pneumoniae AR 0560” value in [9] is more than 128 µg/mL. In addition, the “MIC A. baumannii AR 0299” value in series [10] was more than 128 µg/mL. The “MIC A. baumannii AR 0273” value in series [11] was more than 128 µg/mL. Besides, in series [12], the “MIC E. coli AR 0085” value was 128 µg/mL. The “MIC K. pneumoniae AR 0113” value in [13] is more than 128 µg/mL. Moreover, in series [14], the “MIC A. baumannii AR 0033” value is more than 128 µg/mL.
Turning to `Cc1c(CN(C)C(=O)/C=C/c2ccc3c(c2)CCC(N)C(=O)N3)oc2ccccc12` (stereo not drawn), the figures for the “Hep G2 % Cell Death” value in [15] (30 μM) and in [15] (100 μM) were 12 ± 5% and 58 ± 10%, respectively. The “IMR90 % Cell Death” value in series [16] (30 μM) was found to be 8 ± 3%; in series [16] (100 μM), 67 ± 2%.
For `Cc1c(CN(C)C(=O)/C=C/c2cnc3c(c2)CC(CCN)C(=O)N3)oc2ccccc12.Cl` (stereo not drawn) [Compound 3, (E)-3-(6-(aminoethyl)-7-oxo-5,6,7,8-tetrahydro-1,8-naphthyridin-3-yl)-N-methyl-N-((3-methylbenzofuran-2-yl)methyl)acrylamide hydrochloride], the MTD at 2 weeks in series [17] amounted to 100 mg/kg.
For `Cc1c(CN(C)C(=O)/C=C/c2cnc3c(c2)CC(CCNC(=O)OC(C)(C)C)C(=O)N3)oc2ccccc12` (stereo not drawn) [Compound 10], in [1], the “MIC K. pneumoniae BAA 2472” value came out at 16 µg/mL (≈ 30.9 µM). In [3], the “MIC E. coli MG1655” value was determined as 8 µg/mL (≈ 15.4 µM). The “MIC S. aureus 29213” value in [4] stood at 0.002 µg/mL (≈ 0.00386 µM). Also, the “MIC E. coli ΔtolC” value in series [5] was 0.031 µg/mL (≈ 0.0598 µM). For the same compound, the “MIC A. baumannii AR 0313” value in series [6] was 16 µg/mL (≈ 30.9 µM). In addition, in series [7], the “MIC E. coli AR 0048” value amounted to 8 µg/mL (≈ 15.4 µM). Besides, in [8], the “MIC K. pneumoniae AR 0066” value turned out to be 32 µg/mL (≈ 61.7 µM). Besides, the “MIC K. pneumoniae AR 0560” value in [9] is more than 32 µg/mL. In series [10], the “MIC A. baumannii AR 0299” value amounted to 8 µg/mL (≈ 15.4 µM). The “MIC A. baumannii AR 0273” value in [11] is 8 µg/mL (≈ 15.4 µM). Moreover, the “MIC E. coli AR 0085” value in [12] came out at 8 µg/mL (≈ 15.4 µM). In [13], the “MIC K. pneumoniae AR 0113” value was found to be 32 µg/mL (≈ 61.7 µM). In addition, the “MIC A. baumannii AR 0033” value in series [14] was determined as 16 µg/mL (≈ 30.9 µM).
In the case of `Cc1c(CN(C)C(=O)/C=C/c2cnc3c(c2)CC2(CNC2)C(=O)N3)oc2ccccc12` [Compound 5], the “MIC K. pneumoniae BAA 2472” value in series [1] was 8 µg/mL (≈ 19.2 µM). The “MIC E. coli MG1655” value in [3] is 4 µg/mL (≈ 9.6 µM). Moreover, the “MIC S. aureus 29213” value in [4] amounted to 0.016 µg/mL (≈ 0.0384 µM). Further, the “MIC E. coli ΔtolC” value in series [5] came out at 0.031 µg/mL (≈ 0.0744 µM). Moreover, the “MIC A. baumannii AR 0313” value in series [6] came to 16 µg/mL (≈ 38.4 µM). For the same compound, the “MIC E. coli AR 0048” value in series [7] turned out to be 8 µg/mL (≈ 19.2 µM). In series [8], the “MIC K. pneumoniae AR 0066” value is 8 µg/mL (≈ 19.2 µM). For the same compound, the “MIC K. pneumoniae AR 0560” value in series [9] stood at 16 µg/mL (≈ 38.4 µM). The “MIC A. baumannii AR 0299” value in [10] came to 16 µg/mL (≈ 38.4 µM). Also, the “MIC A. baumannii AR 0273” value in series [11] was 8 µg/mL (≈ 19.2 µM). Further, the “MIC E. coli AR 0085” value in [12] came out at 4 µg/mL (≈ 9.6 µM). Moreover, in series [13], the “MIC K. pneumoniae AR 0113” value turned out to be 16 µg/mL (≈ 38.4 µM). Moreover, the “MIC A. baumannii AR 0033” value in series [14] is 8 µg/mL (≈ 19.2 µM).
